Measured values published in patent publication US9452194B2, “Methods for treating HCV” (AbbVie Inc., priority 2011, dated 2016).

Columns and labels:
[1] = system: 1b-Con1 replicons; test: Predominant resistant variants selected in replicons, fold resistance; format: cell-based, Hepatitis C virus
Method: (§1) Predominant resistant variants selected by Compound 1, 2, or 4 in genotype 1 replicons were also determined.

[2] = system: 1a-H77 replicons; test: as above; format: cell-based, Hepatitis C virus
Method: as §1

[3] = Bioavailability of solid formulation of Compound 2 with increased binder; format: in vivo; settings: 250 mg in the improved formulation versus 400 mg in the original formulation

SMILES: Cc1cnc(C(=O)N[C@H]2CCCCC/C=C\[C@@H]3C[C@@]3(C(=O)NS(=O)(=O)C3CC3)NC(=O)[C@@H]3C[C@@H](Oc4nc5ccccc5c5ccccc45)CN3C2=O)cn1 [Compound 1, (2R,6S,13aS,14aR,16aS,Z)-N-(cyclopropylsulfonyl)-6-(5-methylpyrazine-2-carboxamido)-5,16-dioxo-2-(phenanthridin-6-yloxy)-1,2,3,5,6,7,8,9,10,11,13a,14,14a,15,16,16a-hexadecahydrocyclopropa[e]pyrrolo[1,2-a][1,4]diazacyclopentadecine-14a-carboxamide]
- fold resistance ([1]; variant A156T): 9 fold
- fold resistance ([1]; variant D168V): 190 fold
- fold resistance ([1]; variant R155K): 48 fold
- fold resistance ([2]; variant D168A): 48 fold
- fold resistance ([2]; variant R155K): 26 fold

SMILES: COc1c(-c2ccc3cc(NS(C)(=O)=O)ccc3c2)cc(-n2ccc(=O)[nH]c2=O)cc1C(C)(C)C [Compound 2, N-(6-(3-tert-butyl-5-(2,4-dioxo-3,4-dihydropyrimidin-1(2H)-yl)-2-methoxyphenyl)naphthalen-2-yl)methanesulfonamide]
- bioequivalence of improved solid formulation (increased amount of binder, e.g. copovidone) [3]: bioequivalent
- fold resistance ([1]; variant C316Y): 1400 fold
- fold resistance ([1]; variant D559G): 100 fold
- fold resistance ([1]; variant M414T): 26 fold
- fold resistance ([2]; variant C316Y): 1600 fold
- fold resistance ([2]; variant M414T): 36 fold
- fold resistance ([2]; variant S556G): 15 fold
- fold resistance ([2]; variant Y448C): 980 fold

SMILES: COC(=O)N[C@H](C(=O)N1CCC[C@H]1C(=O)Nc1ccc([C@@H]2CC[C@@H](c3ccc(NC(=O)[C@@H]4CCCN4C(=O)[C@@H](NC(=O)OC)C(C)C)cc3)N2c2ccc(C(C)(C)C)cc2)cc1)C(C)C [Compound 4]
- fold resistance ([1]; variant Y93H): 55 fold
- fold resistance ([2]; variant M28T): 9000 fold
- fold resistance ([2]; variant M28V): 60 fold
- fold resistance ([2]; variant Q30R): 800 fold
- fold resistance ([2]; variant Y93C): 1700 fold
- fold resistance ([2]; variant Y93H): 41000 fold
